Values quoted from earlier work in patent US4356265A, “Method for the production of antibiotic C-15003 P-3” (priority 1979, dated 1982).
Converted amounts (≈) assume the structure as drawn. Like-named read-outs stand apart in the source and are kept apart here.

Key:
Trichophyton rubrum = conditions: IFO 5467, GB, 48 h; 0.02 ml of 1000 μg/ml
[1] = tested on: Fusarium oxysporum f. cucumerinum; conditions: PSA, 48 h; 0.02 ml of 1000 μg/ml
Klebsiella pneumoniae = conditions: 0.02 ml of 300-μg/ml solution per disc, Trypticase Soy Agar
Sclerotinia sclerotiorum = conditions: IFO 9395, PSA, 90 h; 0.02 ml of 1000 μg/ml
Pythium aphanidermatam = conditions: IFO 7030, PSA, 48 h; 0.02 ml of 1000 μg/ml
Pseudomonas aeruginosa = conditions: 0.02 ml of 300-μg/ml solution per disc, Trypticase Soy Agar
Proteus vulgaris = conditions: 0.02 ml of 300-μg/ml solution per disc, Trypticase Soy Agar
Guignardia laricina = conditions: IFO 7888, PSA, 48 h; 0.02 ml of 1000 μg/ml
Alternaria kikuchiana = conditions: IFO 7515, PSA, 48 h; 0.02 ml of 1000 μg/ml
Fusicladium levieri = conditions: IFO 6477, PSA, 90 h; 0.02 ml of 1000 μg/ml
Bacillus subtilis = conditions: 0.02 ml of 300-μg/ml solution per disc, Trypticase Soy Agar
Pyricularia oryzae = conditions: PSA, 48 h; 0.02 ml of 1000 μg/ml
[2] = tested on: Helminthosporium sigmoideum var. irregulare; conditions: IFO 5273, PSA, 48 h; 0.02 ml of 1000 μg/ml
Rhizopus nigricans = conditions: IFO 6188, PSA, 48 h; 0.02 ml of 1000 μg/ml
Pellicularia sasakii = conditions: IFO 9253, PSA, 48 h; 0.02 ml of 1000 μg/ml
Tetrahymena pyriformis W = conditions: pH 7.0, 28° C., 44 to 48 hours
Rhodotorula rubra = conditions: IFO 0907, PSA, 48 h; 0.02 ml of 1000 μg/ml
Talaromyces avellaneus = conditions: agar plate, pH 7.0
P388 leukemia cells = conditions: 0.00625 mg/kg/day, intraperitoneally, 9 consecutive days; 1×10^6 cells/animal i.p.
Mycobacterium avium = conditions: 0.02 ml of 300-μg/ml solution per disc, Trypticase Soy Agar
Aspergillus niger = conditions: IFO 4066, PSA, 48 h; 0.02 ml of 1000 μg/ml
Proteus mirabilis = conditions: 0.02 ml of 300-μg/ml solution per disc, Trypticase Soy Agar
Candida albicans = conditions: IFO 0583, GB, 48 h; 0.02 ml of 1000 μg/ml
mice = conditions: intraperitoneal injection
Elsinoe fawcetti = conditions: IFO 8417, PSA, 90 h; 0.02 ml of 1000 μg/ml
Saccharomyces cerevisiae = conditions: IFO 0209, PSA, 48 h; 0.02 ml of 1000 μg/ml
Staphylococcus aureus = conditions: 0.02 ml of 300-μg/ml solution per disc, Trypticase Soy Agar
Bacillus cereus = conditions: 0.02 ml of 300-μg/ml solution per disc, Trypticase Soy Agar
[3] = tested on: Trichophyton mentagrophytes; conditions: IFO 7522, GB, 48 h; 0.02 ml of 1000 μg/ml
Escherichia coli = conditions: 0.02 ml of 300-μg/ml solution per disc, Trypticase Soy Agar
Penicillium chrysogenum = conditions: IFO 4626, PSA, 48 h; 0.02 ml of 1000 μg/ml
Botrytis cinerea = conditions: PSA, 48 h; 0.02 ml of 1000 μg/ml
Cryptococcus neoformans = conditions: IFO 0410, GB, 48 h; 0.02 ml of 1000 μg/ml
Candida utilis = conditions: IFO 0619, GB, 48 h; 0.02 ml of 1000 μg/ml
Cochlioborus miyabeanus = conditions: IFO 5277, PSA, 48 h; 0.02 ml of 1000 μg/ml
Diaporthe citri = conditions: IFO 9170, PSA, 48 h; 0.02 ml of 1000 μg/ml
Serratia, marcescens = conditions: 0.02 ml of 300-μg/ml solution per disc, Trypticase Soy Agar
Gibberella zeae = conditions: IFO 8850, PSA, 48 h; 0.02 ml of 1000 μg/ml
Venturia pirina = conditions: IFO 6189, PAA, 48 h; 0.02 ml of 1000 μg/ml

SMILES: COc1cc2cc(c1Cl)N(C)C(=O)CC(OC(=O)C(C)C)C1(C)OC1C(C)C1CC(O)(NC(=O)O1)C(OC)C=CC=C(C)C2 (stereo not shown) [Antibiotic C-15003 P-3]
- Inhibition diameter (Trichophyton rubrum): 38 mm
- Inhibition diameter [1]: 20 mm
- antibacterial activity (Klebsiella pneumoniae): no activity
- Inhibition diameter (Sclerotinia sclerotiorum): 65 mm
- Inhibition diameter (Pythium aphanidermatam): 58 mm
- antibacterial activity (Pseudomonas aeruginosa): no activity
- antibacterial activity (Proteus vulgaris): no activity
- Inhibition diameter (Guignardia laricina): 12 mm
- Inhibition diameter (Alternaria kikuchiana): 38 mm
- Inhibition diameter (Fusicladium levieri): 68 mm
- antibacterial activity (Bacillus subtilis): no activity
- Inhibition diameter (Pyricularia oryzae): 53 mm
- Inhibition diameter [2]: 55 mm
- Inhibition diameter (Rhizopus nigricans): 25 mm
- Inhibition diameter (Pellicularia sasakii): 50 mm
- growth inhibition (concentration at which it occurs) (Tetrahymena pyriformis W): 1 µg/mL
- Inhibition diameter (Rhodotorula rubra): 28 mm
- minimal inhibitory concentration (Talaromyces avellaneus): 3 µg/mL (≈ 4.72 µM)
- life-span-extending ratio (P388 leukemia cells): 200%
- antibacterial activity (Mycobacterium avium): no activity
- Inhibition diameter (Aspergillus niger): 0 mm
- antibacterial activity (Proteus mirabilis): no activity
- Inhibition diameter (Candida albicans): 0 mm
- LD0 (mice): 0.313 mg/kg
- LD100 (mice): 0.625 mg/kg
- Inhibition diameter (Elsinoe fawcetti): 55 mm
- Inhibition diameter (Saccharomyces cerevisiae): 0 mm
- antibacterial activity (Staphylococcus aureus): no activity
- antibacterial activity (Bacillus cereus): no activity
- Inhibition diameter [3]: 38 mm
- antibacterial activity (Escherichia coli): no activity
- Inhibition diameter (Penicillium chrysogenum): 35 mm
- Solubility (in benzene, ether): Sparingly soluble
- Solubility (in chloroform, ethyl acetate, acetone, ethanol, methanol, pyridine, tetrahydrofuran, dimethylsulfoxide): Soluble
- Solubility (in petroleum ether, n-hexane, water): Insoluble
- Inhibition diameter (Botrytis cinerea): 48 mm
- Inhibition diameter (Cryptococcus neoformans): 43 mm
- Inhibition diameter (Candida utilis): 0 mm
- Inhibition diameter (Cochlioborus miyabeanus): 60 mm
- Inhibition diameter (Diaporthe citri): 55 mm
- antibacterial activity (Serratia, marcescens): no activity
- Inhibition diameter (Gibberella zeae): 37 mm
- Inhibition diameter (Venturia pirina): 50 mm
